# Laboratory results as given in patent US20250228834A1, “PHARMACEUTICAL COMPOSITION FOR THE TREATMENT OF COLON AND LUNG CANCER” (HEPAREGENIX GMBH, priority 2022, published 2025).
# Columns and labels:
# Type in all cases: cell-based
# [1] = system: KRASG12C mutant lung cancer cells (H358, H2122); assay: Colony formation matrix (Assay Method A), Example 3; settings: 10 days, FIG. 3
# Experimental: (§1) • KRAS mutant lung and colorectal cancer cells: • Lung: H358 (G12C) (ATCC No: CRL-5807) • H2122 (G12C) (ATCC No: CRL-5985) • Colon:DLD1 (G13D) (ATCC No: CCL-221) • HCT 116 (G13D) (ATCC No: CCL-247)
# (§2) All cell lines were cultured in RPMI 1640 medium (Gibco) supplemented with 10% fetal bovine serum, 1% glutamine and penicillin-streptomycin (Gibco) at 37° C. and 5% CO2. Mycoplasma contamination was excluded via a PCR-based method.
# (§3) Cell lines were cultured and seeded into 24-well plates. After 24 h incubation, drugs were added using the HP D300 Digital Dispenser. Medium and drugs were refreshed twice a week for 10-14 days. After this, cells were fixed with 4% formaldehyde in PBS and stained with 0.1% crystal violet in water. The quantification of the colony formation matrixes (crystal violet staining per well) was assessed using ImageJ software.
# According to Assay Method A cells (H358, H2122) were treated with compound (A), AMG510 or their combination at the indicated concentrations (cf. FIG. 3). Drugs were refreshed twice a week. The cells were fixed and stained after 10 days.
# Lung Cancer Cells [2] = assay: IncuCyte Caspase 3/7 apoptosis assay (Assay Method C); settings: compound (A) in combination with Trametinib, RMC4550 or AMG510; first 72 hours; FIG. 5B
# Experimental: as §2
# For IncuCyte proliferation assays and Caspase 3/7 assays, cells were seeded in 96-well plates. After 24 h incubation, drugs and the IncuCyte® Caspase-3/7 green apoptosis assays reagent (Essen Bioscience 4440) were added using the HP D300 Digital Dispenser and the plates were placed in the IncuCyte®. Culture media and drugs were refreshed twice a week for 10 days. Cells were imaged every 4 hours in the IncuCyte ZOOM (Essen Bioscience). Phase-contrast images were collected and analyzed to detect cell proliferation based on cell confluence. Apoptosis was measured based on green fluorescent staining of apoptotic cells using the IncuCyte® Caspase-3/7 green apoptosis assay reagent (Essen Bioscience 4440).
# According to assay method C cells were treated with compound (A) as component a) and RMC4550, AMG510, or Trametinib as component b) or combinations of component a) and either one of component b) at the indicated concentrations. Additionally, during the first treatment, the IncuCyte® Caspase-3/7 green apoptosis assay reagent was added to measure apoptosis for the first 72 hours. […] Confluence (left) and Caspase 3/7 activity was measured by the IncuCyte®. […]
# [3] = system: KRAS mutant lung and colorectal cancer cells (H358, H2122, DLD1, HCT 116); assay: Colony formation matrix (Assay Method A)
# Experimental: as §1, §2, §3
# According to Assay Method A cells (H358, H2122, DLD1, HCT 116) were treated with compound (A), Trametinib or their combination at the indicated concentrations (cf. FIG. 1). Drugs were refreshed twice a week. The cells were fixed and stained after 10 days.
# According to Assay Method A cells (H358, DLD1, HCT 116) were treated with compound (A), SCH772984 or their combination at the indicated concentrations (cf. FIG. 2). Drugs were refreshed twice a week. The cells were fixed and stained after 10 days.
# Lung Cancer Cells [4] = assay: IncuCyte proliferation assay (Assay Method C), confluence
# Experimental: as §2
# Drugs were refreshed twice a week.
# [5] = system: KRAS G12C mutant cancer cell line H358; assay: Colony formation matrix (Assay Method A), Example 4; settings: compound (A) combined with RMC4550, 10 days, FIG. 4
# Experimental: as §1, §2, §3
# According to Assay Method A H358 cells were treated with compound (A), RMC4550 or their combination at the indicated concentrations (cf. FIG. 4). Drugs were refreshed twice a week. The cells were fixed and stained after 10 days.
smiles,measurement,setting,value
"CCCS(=O)(=O)Nc1c(F)ccc(C(=O)c2c[nH]c3ncc(-c4cnc(C5CC5)nc4)cc23)c1F [compound (A), N-(3-(5-(2-cyclopropyl-pyrimidin-5-yl)-1H-pyrrolo[2,3-b]pyridine-3-carbonyl)-2,6-difluorophenyl)-propane-1-sulfonamide]",toxicity compared to the single agent effect of AMG510,"[1]; addition of compound (A) to AMG510, KRAS G12C mutants H358, H2122",strongly increased the toxicity
same,synergy with AMG510 in colony formation matrix,"[1]; compound (A) combined with AMG510, H358, H2122",strong synergy
same,apoptosis (Caspase 3/7 activity),Lung Cancer Cells [2],Induces Apoptosis
same,"synergy with MEK, ERK, KRAS and SHP2 inhibition, overall conclusion","[3]; compound (A) combined with MEK, ERK, KRAS or SHP2 inhibitor, all obtained results",strongly synergizes
same,synergy with ERK inhibition in colony formation matrix,"[3]; compound (A) combined with SCH772984, H358, DLD1, HCT 116, 10 days, FIG. 2",Synergizes
same,"toxicity in colony formation matrix, single drug","[3]; single drug, KRAS mutant cancer cells (H358, H2122, DLD1, HCT 116), fixed and stained after 10 days, FIG. 1",did not show sensitivity
same,cell proliferation (confluence),"Lung Cancer Cells [4]; compound (A) in combination with Trametinib, RMC4550 or AMG510, FIG. 5A",Abrogates Cell Proliferations
same,synergistic effect of combination (confluence and Caspase 3/7 activity),"Lung Cancer Cells [4]; compound (A) with MEK, SHP2 and KRASG12C inhibitors, example 5, FIGS. 5A and 5B",synergistic effect
same,synergy with SHP2 inhibition in colony formation matrix,[5],Synergizes
